The nature of data set [1]: Sensory analysis (triangle test), taste comparison with sucrose as control sample. The class given is in vivo. The settings on record: vs sucrose; for Difference (number of answers) / No difference (number of answers): aqueous solutions of same sweetness. The source says:
The sweetener composition shall be tested, evaluated and analyzed by referring to Sensory Analysis Methodology (Triangular Test) (BS ISO 4120) and Sensory Analysis Method (Triangle Test) (GB/T 12311). The specific analysis method is as follows:
Method and principle: A group of three samples shall be provided to evaluators, two of which are identical and the evaluators shall select a single sample.
Preparation of test samples: Enough samples A and B shall be provided, and every three test samples are a group.
Sample groups with equal number of samples shall be prepared from laboratory samples in the following six combinations: ABB, AAB, ABA, BAA, BBA and BAB.
Test requirements: Evaluators shall not make conclusion as to the nature of samples from sample supply methods. All test sample groups shall be prepared in the same way [the same equipment, the same container, the same quantity of products and the same arrangement (triangle, straight line, etc.)]. In any sample group, the temperature of test samples shall be the same, and if possible, the temperature of all other sample groups in the test series provided shall also be the same. Test sample containers shall be numbered generally with three random digits. The number shall be different for each test.
Test techniques: Evaluators shall be notified of the test purpose to the extent that their conclusions are not biased. Groups of prepared samples shall be randomly assigned to the evaluators, then the evaluators shall check test samples of each group in the specified order, and the order shall be the same in the same series of tests. While evaluating three test samples in the same group, the evaluators shall have the opportunity to retest each sample. The test leader can tell the evaluators the quantity and volume of samples provided when necessary. When the number of evaluators is less than a multiple of 6, the following two approaches can be taken. (a) Discard redundant sample groups, or (b) Provide each evaluator with six groups of samples for retest.
When the evaluator cannot identify the difference, the answer “no difference” is allowed.
The number of “difference” or “no difference” answers shall be counted. When the number of evaluators (n) is greater than 100, the minimum number of answers needed to determine the significant difference in the triangle test at different significance levels (X) is calculated according to the following formula, and the nearest integer value shall be taken. Where, α is the significance level, which is an expected value.
The above evaluation and analysis methods were applied to analyze different compositions, with sucrose as the control sample. Samples and the control sample were prepared respectively into aqueous solutions with the same sweetness and then tested according to the requirements of the above-mentioned sensory analysis method. […]
Rebaudioside A (>97%), DM 3:1 mixture, DM 3:1 mixture-rebaudioside A (1:9, w/w), DM 3:1 mixture-rebaudioside A (9:1, w/w), DM 3:1 mixture-rebaudioside A (3:7, w/w) were analyzed according to the evaluation and analysis methods described above, with sucrose as the control sample. Samples and the control sample were prepared respectively into aqueous solutions with the same sweetness and then tested according to the requirements of the above-mentioned sensory analysis method. […]
Rebaudioside A (>97%), DM 3:1 mixture, DM 3:1 mixture-rebaudioside A (3:7, w/w), DM 3:1 mixture-rebaudioside A (7:3, w/w), DM 3:1 mixture-rebaudioside A (4:6, w/w) were analyzed according to the evaluation and analysis methods described above, with sucrose as the control sample. Samples and the control sample were prepared respectively into aqueous solutions with the same sweetness and then tested according to the requirements of the above-mentioned sensory analysis method. Effective evaluators are 125 primary evaluators, who were allowed to answer “no difference”. […]

The conditions of data set [2]: relative to sucrose of the same weight; cited from earlier work.
A short description of data set [3]: Solubility of reb M in water and solvents. The class given is physicochemical.
Data set [4] is described as follows: Heat and pH stability of reb M. It counts as physicochemical.
[5] abbreviates: Evaluation II, 135 primary evaluators.
The mark [6] stands for this setting: Evaluation III, 125 primary evaluators.
[7] abbreviates: Evaluation IV, 128 primary evaluators.
Setting [8] is: Evaluation I, 135 primary evaluators.

For the molecule `C=C1C[C@@]23CC[C@H]4[C@@](C)(CCC[C@@]4(C)C(=O)O[C@@H]4O[C@H](CO)[C@@H](O)[C@H](O)[C@H]4O)[C@@H]2CC[C@]1(O[C@@H]1O[C@H](CO)[C@@H](O)[C@H](O[C@@H]2O[C@H](CO)[C@@H](O)[C@H](O)[C@H]2O)[C@H]1O[C@@H]1O[C@H](CO)[C@@H](O)[C@H](O)[C@H]1O)C3` [RA, rebaudioside A], in data set [1] (setting [5]), the “Difference (number of answers)” value is given as 85, the “No difference (number of answers)” value is reported as 50 and the “Conclusion (taste compared with sucrose)” value is “Dissimilar”. In addition, in data set [1] (setting [6]), the “Difference (number of answers)” value was 78, the “No difference (number of answers)” value is reported as 47 and the “Conclusion (taste compared with sucrose)” value was “Dissimilar”. In addition, in data set [1] (setting [7]), the “Difference (number of answers)” value was 82, the “No difference (number of answers)” value amounted to 46 and the “Conclusion (taste compared with sucrose)” value is given as “Dissimilar”. For the same molecule, the “Sweetness Multiple (1 for sucrose of the same weight)” value (from here on “Sweetness Multiple”) in data set [2] is recorded as 350-450.
As for `C=C1C[C@@]23CC[C@H]4[C@@](C)(CCC[C@@]4(C)C(=O)O[C@@H]4O[C@H](CO)[C@@H](O)[C@H](O[C@@H]5O[C@H](CO)[C@@H](O)[C@H](O)[C@H]5O)[C@H]4O[C@@H]4O[C@H](CO)[C@@H](O)[C@H](O)[C@H]4O)[C@@H]2CC[C@]1(O[C@@H]1O[C@H](CO)[C@@H](O)[C@H](O[C@@H]2O[C@H](CO)[C@@H](O)[C@H](O)[C@H]2O)[C@H]1O[C@@H]1O[C@H](CO)[C@@H](O)[C@H](O)[C@H]1O)C3` [RM], the “solubility in organic solvents” value in data set [3] (acetone, benzene, chloroform, and ether) was “insoluble”. Also, the “solubility in diluted alcohols” value in data set [3] (diluted solutions of methanol, ethanol, n-propanol, and isopropanol) is given as “soluble”. Also, the solubility in water entry in data set [3] (water, increases with an increase in temperature) is listed as “around 0.3%”. The “heat and pH stability” value in data set [4] is “heat and pH-stable”. In data set [1] (setting [8]), the “Difference (number of answers)” value was 97, the “No difference (number of answers)” value is 38 and the “Conclusion (taste compared with sucrose)” value was “Dissimilar”. Besides, in data set [2], the “Sweetness Multiple” value is recorded as 200-350.
“13-[(2O-β-D-glucopyranosyl-3-O-β-D-glucopyranosyl-β-D-glucopyranosyl)oxy]kaur-16-en18-oic acid, 2-O-β-D-glucopyranosyl-3-O-β-D-glucopyranosyl-β-D-glucopyranosyl ester [RD]”: in data set [1] (setting [8]), the “Difference (number of answers)” value was 79, the “No difference (number of answers)” value was determined as 56 and the “Conclusion (taste compared with sucrose)” value was “Similar”. The “Sweetness Multiple” value in data set [2] is given as 150-250.
For the molecule `C=C1C[C@@]23CC[C@H]4[C@@](C)(CCC[C@@]4(C)C(=O)O[C@@H]4O[C@H](CO)[C@@H](O)[C@H](O)[C@H]4O)[C@@H]2CC[C@]1(O[C@@H]1O[C@H](CO)[C@@H](O)[C@H](O)[C@H]1O[C@@H]1O[C@H](CO)[C@@H](O)[C@H](O)[C@H]1O)C3` [STv, stevioside, reference compound], in data set [2], the “Sweetness Multiple” value is listed as 270-300.

Source of the values: US11274328B2, “Methods for producing rebaudioside D and rebaudioside M and compositions thereof” (SICHUAN INGIA BIOSYNTHETIC CO., LTD., priority 2018, dated 2022).
